Test results taken from PMC8286840, “Identifying SARS-CoV-2 antiviral compounds by screening for small molecule inhibitors of Nsp3 papain-like protease” (Biochemical Journal, 2021).
Structures can show the parent of a compound that is named as a salt. Where two headings read alike, the source gives them in different places. Where a SMILES comes first, the peptide text is derived from it. [ ]: non-standard residue; d: D form. pGlu = O=C1CC[C@@H](C(=O)O)N1; Thz = O=C(O)[C@@H]1CSCN1

What was measured:
[1] = target: T1, SARS-CoV-2 PLpro (nsp3 1564–1878) (Severe acute respiratory syndrome coronavirus 2, UniProt P0DTD1); test: biochemical; set-up: FRET-quenched peptide (Pro3) cleavage by PLpro, 10 min pre-incubation, slope over 20 min, normalised to no-compound control; settings: read-out: % of control remaining
[2] = target: T1, SARS-CoV-2 PLpro (nsp3 1564–1878); test: biochemical; set-up: FRET-quenched peptide (Pro3) cleavage by PLpro, 10 min pre-incubation, slope over 20 min, normalised to no-compound control; settings: read-out: % of control remaining; remark: listed apart in the source

Structure (SMILES): CC(=O)C1=C(O)[C@@H]2[C@H]3c4c[nH]c5cccc(c45)C[C@H]3C(C)(C)N2C1=O [Cyclopiazonic acid]
- remaining activity at 1.25 µM ([1]; Well no.=3183, low concentration screen): 102%
- remaining activity at 3.75 µM ([2]; Well no.=3183, high concentration screen): 104%

Structure (SMILES): C[C@]12C=CC(=O)C=C1CC[C@@H]1C2=CC[C@]2(C)[C@@H](C(=O)CN3CCN(c4cc(N5CCCC5)nc(N5CCCC5)n4)CC3)CC[C@@H]12 [U-74389G maleate]
- remaining activity at 1.25 µM ([1]; Well no.=1236, low concentration screen): 104%
- remaining activity at 3.75 µM ([2]; Well no.=1236, high concentration screen): 106%

Structure (SMILES): O=C(O)c1cc(=O)cc(C(=O)O)[nH]1 [Chelidamic acid]
- remaining activity at 1.25 µM ([1]; Well no.=282, low concentration screen): 86.7%
- remaining activity at 3.75 µM ([2]; Well no.=282, high concentration screen): 90.8%

Structure (SMILES): NC(=O)c1ccc[n+]([O-])c1 [Nicotinamide N-oxide]
- remaining activity at 1.25 µM ([1]; Well no.=6247, low concentration screen): 105%
- remaining activity at 1.25 µM ([1]; Well no.=8269, low concentration screen): 106%
- remaining activity at 1.25 µM ([1]; Well no.=8347, low concentration screen): 101%
- remaining activity at 3.75 µM ([2]; Well no.=6247, high concentration screen): 107%
- remaining activity at 3.75 µM ([2]; Well no.=8269, high concentration screen): 102%
- remaining activity at 3.75 µM ([2]; Well no.=8347, high concentration screen): 92.3%

Structure (SMILES): O=C1/C(=C/c2ccc(O)cc2)Oc2cc(O)ccc21 [Hispidol]
- remaining activity at 1.25 µM ([1]; Well no.=6966, low concentration screen): 95.6%
- remaining activity at 3.75 µM ([2]; Well no.=6966, high concentration screen): 93%

Structure (SMILES): C#Cc1cccc(Nc2ncnc3cc(OCCOC)c(OCCO)cc23)c1 [OSI-420]
- remaining activity at 1.25 µM ([1]; Well no.=4822, low concentration screen): 99.2%
- remaining activity at 1.25 µM ([1]; Well no.=5152, low concentration screen): 102%
- remaining activity at 3.75 µM ([2]; Well no.=4822, high concentration screen): 101%
- remaining activity at 3.75 µM ([2]; Well no.=5152, high concentration screen): 97.4%

Structure (SMILES): CC(C)N(CC[C@H](c1ccccc1)c1cc(CO)ccc1O)C(C)C [(R)-5-Hydroxymethyl Tolterodine]
- remaining activity at 1.25 µM ([1]; Well no.=7038, low concentration screen): 107%
- remaining activity at 3.75 µM ([2]; Well no.=7038, high concentration screen): 107%

Structure (SMILES): Cc1cnc(NC(=O)c2cc(S(=O)(=O)N(C)C)ccc2N2CCCC2)s1 [NGI-1]
- remaining activity at 1.25 µM ([1]; Well no.=7684, low concentration screen): 103%
- remaining activity at 3.75 µM ([2]; Well no.=7684, high concentration screen): 103%

Structure (SMILES): O=C(O)CCc1nc(-c2ccccc2)c(-c2ccccc2)o1 [Oxaprozin]
- remaining activity at 1.25 µM ([1]; Well no.=1090, low concentration screen): 102%
- remaining activity at 3.75 µM ([2]; Well no.=1090, high concentration screen): 104%

Structure (SMILES): COc1ccc(NS(=O)(=O)c2ccc(N)cc2)nn1 [Sulfamethoxypyridazine]
- remaining activity at 1.25 µM ([1]; Well no.=7354, low concentration screen): 101%
- remaining activity at 1.25 µM ([1]; Well no.=8613, low concentration screen): 94.6%
- remaining activity at 3.75 µM ([2]; Well no.=7354, high concentration screen): 99.7%
- remaining activity at 3.75 µM ([2]; Well no.=8613, high concentration screen): 94.7%

Structure (SMILES): Cc1ccc([N+](=O)[O-])cc1S(=O)(=O)N(C)/N=C/c1cnc2ccc(Br)cn12 [PIK 75]
- remaining activity at 1.25 µM ([1]; Well no.=2993, low concentration screen): 96.4%
- remaining activity at 3.75 µM ([2]; Well no.=2993, high concentration screen): 96.1%

Structure (SMILES): CN1CCC(NC(=O)c2cc(-c3c(O)cc(O)cc3Oc3ccc([N+](=O)[O-])cc3)on2)CC1 [NMS-E973]
- remaining activity at 1.25 µM ([1]; Well no.=8620, low concentration screen): 94.8%
- remaining activity at 3.75 µM ([2]; Well no.=8620, high concentration screen): 89.2%

Structure (SMILES): O=C1CC[C@@H](C(=O)N2CSC[C@H]2C(=O)O)N1 [Pidotimod] ([pGlu]-[Thz]-OH)
- remaining activity at 1.25 µM ([1]; Well no.=7508, low concentration screen): 101%
- remaining activity at 3.75 µM ([2]; Well no.=4933, high concentration screen): 105%
- remaining activity at 3.75 µM ([2]; Well no.=7508, high concentration screen): 97.7%

Structure (SMILES): CC(C)CN(C[C@@H](O)[C@H](Cc1ccccc1)NC(=O)O[C@H]1CO[C@H]2OCC[C@H]21)S(=O)(=O)c1ccc(N)cc1 [Darunavir Ethanolate]
- remaining activity at 1.25 µM ([1]; Well no.=8284, low concentration screen): 90.9%
- remaining activity at 3.75 µM ([2]; Well no.=8284, high concentration screen): 94.1%

Structure (SMILES): CCCCCCCCCCCCCCC(=O)O [Pentadecanoic acid]
- remaining activity at 1.25 µM ([1]; Well no.=4588, low concentration screen): 95%
- remaining activity at 1.25 µM ([1]; Well no.=7021, low concentration screen): 110%
- remaining activity at 3.75 µM ([2]; Well no.=4588, high concentration screen): 95.6%
- remaining activity at 3.75 µM ([2]; Well no.=7021, high concentration screen): 103%

Structure (SMILES): CCn1cc(C(=O)O)c(=O)c2cc(F)c(N3CCNC(C)C3)c(F)c21 (stereo not drawn) [Lomefloxacin hydrochloride]
- remaining activity at 1.25 µM ([1]; Well no.=929, low concentration screen): 98.7%
- remaining activity at 3.75 µM ([2]; Well no.=929, high concentration screen): 94.8%

Structure (SMILES): CC(C)(C)NCC(O)c1cc(Cl)c(N)c(Cl)c1 (stereo not drawn) [Clenbuterol]
- remaining activity at 1.25 µM ([1]; Well no.=1743, low concentration screen): 102%
- remaining activity at 3.75 µM ([2]; Well no.=1743, high concentration screen): 102%

Structure (SMILES): C[C@@H](O)[C@H](N)c1nnc([C@H](CCC(N)=O)NC(=O)N[C@@H](CO)C(=O)O)o1 [PD-1-IN-17]
- remaining activity at 1.25 µM ([1]; Well no.=8741, low concentration screen): 102%
- remaining activity at 3.75 µM ([2]; Well no.=8741, high concentration screen): 106%

Structure (SMILES): O=C(O)c1ccc(SC2=NS(=O)(=O)c3ccccc32)cc1 [4-((1,1-dioxidobenzo[d]isothiazol-3-yl)thio)benzoic acid]
- remaining activity at 1.25 µM ([1]; Well no.=5526, low concentration screen): 97.8%
- remaining activity at 3.75 µM ([2]; Well no.=5526, high concentration screen): 102%

Structure (SMILES): CC(C)=CCC[C@]1(C)C=Cc2c(O)c3c(c(CC=C(C)C)c2O1)O[C@]12C(=C[C@@H]4C[C@H]1C(C)(C)O[C@@]2(C/C=C(/C)C(=O)O)C4=O)C3=O [Gambogic Acid]
- remaining activity at 1.25 µM ([1]; Well no.=3723, low concentration screen): 94.4%
- remaining activity at 1.25 µM ([1]; Well no.=6926, low concentration screen): 96.6%
- remaining activity at 3.75 µM ([2]; Well no.=3723, high concentration screen): 97.8%
- remaining activity at 3.75 µM ([2]; Well no.=6926, high concentration screen): 91.9%

Structure (SMILES): C[C@@]1(CO)[C@H](O)CC[C@@]2(C)[C@H]1CC[C@H]1C[C@@H]3C[C@@]12CC[C@]3(O)CO [Aphidicolin]
- remaining activity at 1.25 µM ([1]; Well no.=3476, low concentration screen): 104%
- remaining activity at 3.75 µM ([2]; Well no.=3476, high concentration screen): 101%

Structure (SMILES): CC(C)NCC(O)c1ccc(O)c(O)c1 (stereo not drawn) [S(+)-Isoproterenol (+)-bitartrate]
- remaining activity at 1.25 µM ([1]; Well no.=823, low concentration screen): 102%
- remaining activity at 3.75 µM ([2]; Well no.=823, high concentration screen): 105%

Structure (SMILES): CC(=O)OCC(=O)[C@@]1(O)CC[C@H]2[C@@H]3CCC4=CC(=O)CC[C@]4(C)[C@H]3[C@@H](O)C[C@@]21C [Hydrocortisone (acetate)]
- remaining activity at 1.25 µM ([1]; Well no.=7342, low concentration screen): 105%
- remaining activity at 3.75 µM ([2]; Well no.=7342, high concentration screen): 109%

Structure (SMILES): Cc1ccc(C(=O)c2ccc(CC(=O)O)n2C)cc1 [Tolmetin]
- remaining activity at 1.25 µM ([1]; Well no.=1998, low concentration screen): 101%
- remaining activity at 3.75 µM ([2]; Well no.=1998, high concentration screen): 101%

Structure (SMILES): NS(=O)(=O)NCCNc1nonc1/C(=N/O)Nc1ccc(F)c(Br)c1 [Epacadostat]
- remaining activity at 1.25 µM ([1]; Well no.=8415, low concentration screen): 99.9%
- remaining activity at 3.75 µM ([2]; Well no.=8415, high concentration screen): 95.7%

Structure (SMILES): COc1ccc(-c2oc3c(CC=C(C)C)c(O[C@@H]4O[C@H](CO)[C@@H](O)[C@H](O)[C@H]4O)cc(O)c3c(=O)c2O[C@@H]2O[C@@H](C)[C@H](O)[C@@H](O)[C@H]2O)cc1 [Icariin]
- remaining activity at 1.25 µM ([1]; Well no.=5200, low concentration screen): 99.9%
- remaining activity at 3.75 µM ([2]; Well no.=5200, high concentration screen): 100%

Structure (SMILES): C=C(C)[C@@H]1[C@H]2OC(=O)[C@@H]1[C@]1(O)C[C@H]3O[C@]34C(=O)O[C@H]2[C@]14C [Picrotoxinin]
- remaining activity at 1.25 µM [1]: 101%
- remaining activity at 3.75 µM [2]: 101%

Structure (SMILES): COc1cc2ncnc(Nc3ccc(Cl)cc3Cl)c2cc1OC [Ste11 MAPKKK Activation Inhibitor]
- remaining activity at 1.25 µM ([1]; Well no.=2673, low concentration screen): 96.8%
- remaining activity at 3.75 µM ([2]; Well no.=2673, high concentration screen): 99.8%

Structure (SMILES): CCC1(C)CC(=O)NC1=O (stereo not drawn) [Ethosuximide]
- remaining activity at 1.25 µM ([1]; Well no.=653, low concentration screen): 96.4%
- remaining activity at 3.75 µM ([2]; Well no.=653, high concentration screen): 97.7%

Structure (SMILES): COc1cc(O)c(CC=C(C)C)c(O)c1C(=O)/C=C/c1ccc(O)cc1 [Xanthohumol]
- remaining activity at 1.25 µM ([1]; Well no.=8578, low concentration screen): 106%
- remaining activity at 3.75 µM ([2]; Well no.=8578, high concentration screen): 102%

Structure (SMILES): COc1ccc([C@@H]2Sc3ccccc3N(CCN(C)C)C(=O)[C@@H]2OC(C)=O)cc1 [Diltiazem]
- remaining activity at 1.25 µM ([1]; Well no.=1713, low concentration screen): 104%
- remaining activity at 3.75 µM ([2]; Well no.=1713, high concentration screen): 102%
